Measured values as given in patent US7211572B2 (Japan Tobacco Inc., priority 2003, dated 2007).
Counter-ions that a name gives are not always drawn.

target: T1, HIV integrase (Human immunodeficiency virus type 1 group M subtype B, UniProt P12497, F1332H); assay: Determination of enzyme (HIV integrase) inhibitory activity; format: biochemical; conditions: recombinant HIV integrase (F185H), strand transfer ELISA, absorbance at 450 nm
T1 construct: HIV integrase full length gene; made in house; host or cells: Escherichia coli BL21(DE3), plasmid pET21a-INH
Outline: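 Full-length integrase with F185H, expressed in E. coli and purified, was reacted for 60 min at 37 °C with compound and biotinylated donor DNA bound to streptavidin plates. Target DNA was added for 10 min, then anti-digoxigenin-peroxidase detection at A450; IC50 from % inhibition versus enzyme-free blank.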

**Q.** For CC(C)(C)C(O)Cc1cc(=O)c(O)c2n1CCN(Cc1ccc(F)cc1)C2=O (centres unmarked) [Example 422, 2-(4-fluorobenzyl)-9-hydroxy-6-(2-hydroxy-3,3-dimethylbutyl)-3,4-dihydro-2H-pyrido[1,2-a]pyrazine-1,8-dione hydrochloride], which IC50 is on record?
**A.** 10 to 100 nM

**Q.** How did the IC50 turn out when CC(=O)Nc1cn2c(C)cn(Cc3cccc(Cl)c3)c(=O)c2c(O)c1=O [Example 423, N-[2-(3-chlorobenzyl)-9-hydroxy-4-methyl-1,8-dioxo-1,8-dihydro-2H-pyrido[1,2-a]pyrazin-7-yl]acetamide] was run?
**A.** 10 to 100 nM

**Q.** With COCc1c(-c2ccccn2)c(=O)c(O)c2n1CCN(Cc1ccc(F)cc1)C2=O [Example 424, 2-(4-fluorobenzyl)-9-hydroxy-6-methoxymethyl-7-(pyridin-2-yl)-3,4-dihydro-2H-pyrido[1,2-a]pyrazine-1,8-dione hydrochloride] as the compound, how does the IC50 read?
**A.** 10 to 100 nM

**Q.** For COCC(C)(C)C(=O)c1cn2ccn(Cc3ccc(F)cc3)c(=O)c2c(O)c1=O [Example 425, 2-(4-fluorobenzyl)-9-hydroxy-7-(3-methoxy-2,2-dimethylpropionyl)-2H-pyrido[1,2-a]pyrazine-1,8-dione hydrochloride], which IC50 is on record?
**A.** < 10 nM

**Q.** With COc1ccnc(CNC(=O)c2cn3c(c(O)c2=O)C(=O)N(Cc2ccc(F)cc2)CC3)n1 [Example 426, N-(4-methoxypyrimidin-2-ylmethyl)-2-(4-fluorobenzyl)-9-hydroxy-1,8-dioxo-1,3,4,8-tetrahydro-2H-pyrido[1,2-a]pyrazine-7-carboxamide hydrochloride] as the compound, how does the IC50 read?
**A.** 10 to 100 nM

**Q.** Which IC50 does the source give for CC(C)(C)C(=O)Cc1c(C(=O)C(C)(C)C)c(=O)c(O)c2n1CCN(Cc1ccc(F)cc1)C2=O [Example 427, 6-(3,3-dimethyl-2-oxobutyl)-7-(2,2-dimethylpropionyl)-2-(4-fluorobenzyl)-9-hydroxy-3,4-dihydro-2H-pyrido [1,2-a]pyrazine-1,8-dione hydrochloride] here?
**A.** 10 to 100 nM

**Q.** With CC(=O)Nc1ccc(CNC(=O)c2cn3c(c(O)c2=O)C(=O)N(Cc2ccc(F)cc2)CC3)cc1 [Example 428, N-(4-acetylaminobenzyl)-2-(4-fluorobenzyl)-9-hydroxy-1,8-dioxo-1,3,4,8-tetrahydro-2H-pyrido[1,2-a]pyrazine-7-carboxamide] as the compound, how does the IC50 read?
**A.** 10 to 100 nM

**Q.** For O=c1ccn2c(CCO)cn(Cc3ccc(Cl)c(Cl)c3)c(=O)c2c1O [Example 429, 2-(3,4-dichlorobenzyl)-9-hydroxy-4-(2-hydroxyethyl)-2H-pyrido[1,2-a]pyrazine-1,8-dione hydrochloride], which IC50 is on record?
**A.** 10 to 100 nM

**Q.** CCC(O)c1cn(Cc2ccc(Cl)c(Cl)c2)c(=O)c2c(O)c(=O)ccn12 (centres unmarked) [Example 430, 2-(3,4-dichlorobenzyl)-9-hydroxy-4-(1-hydroxypropyl)-2H-pyrido[1,2-a]pyrazine-1,8-dione] was tested. Which IC50 did it give?
**A.** 10 to 100 nM

**Q.** For O=c1ccn2c(CCCO)cn(Cc3ccc(Cl)c(Cl)c3)c(=O)c2c1O [Example 431, 2-(3,4-dichlorobenzyl)-9-hydroxy-4-(3-hydroxypropyl)-2H-pyrido[1,2-a]pyrazine-1,8-dione], which IC50 is on record?
**A.** 10 to 100 nM

**Q.** With CC(C)C(O)c1cn(Cc2ccc(Cl)c(Cl)c2)c(=O)c2c(O)c(=O)ccn12 (centres unmarked) [Example 432, 2-(3,4-dichlorobenzyl)-9-hydroxy-4-(1-hydroxy-2-methylpropyl)-2H-pyrido[1,2-a]pyrazine-1,8-dione] as the compound, how does the IC50 read?
**A.** < 10 nM
